# Results: ChEMBL document CHEMBL5360529, “Pyrimidine derivatives with antitubercular activity” (Eur J Med Chem, 2023)
# pIC50, pKi: −log10 of the molar value.
# What was measured:
# [1] = system: Mycobacterium tuberculosis; test: Antimycobacterial activity against Mycobacterium tuberculosis H37RV assessed as bacterial growth inhibition; format: functional
# [2] = system: Mycobacterium tuberculosis; test: Antimycobacterial activity against Mycobacterium tuberculosis H37Rv assessed as bacterial growth inhibition by microplate Alamar blue assay; format: functional
# [3] = system: Mycobacterium tuberculosis; test: Antimycobacterial activity against Mycobacterium tuberculosis assessed as bacterial growth inhibition measured after 14 to 21 day; format: functional; conditions: time 14-21 day
# [4] = system: Mycobacterium tuberculosis; test: Antimycobacterial activity against Mycobacterium tuberculosis My331/88 assessed as bacterial growth inhibition measured after 14 to 21 day; format: functional; conditions: time 14-21 day
# Adenosine kinase [5] = target: Adenosine kinase (Homo sapiens, UniProt P55263); test: Inhibition of human ADK
# Adenosine kinase [6] = target: Adenosine kinase (Mycobacterium tuberculosis (strain CDC 1551 / Oshkosh), UniProt P9WID4); test: Inhibition of Mycobacterium tuberculosis ADK
# [7] = Selectivity index, ratio of Ki for human TMPK to Ki for Mycobacterium tuberculosis TMPK
# Thymidylate kinase [8] = target: T1, Thymidylate kinase (Mycobacterium tuberculosis, UniProt P9WKE1); test: Inhibition of Mycobacterium tuberculosis TMPK assessed as inhibition constant
# T1 sequence (P9WKE1 whole entry): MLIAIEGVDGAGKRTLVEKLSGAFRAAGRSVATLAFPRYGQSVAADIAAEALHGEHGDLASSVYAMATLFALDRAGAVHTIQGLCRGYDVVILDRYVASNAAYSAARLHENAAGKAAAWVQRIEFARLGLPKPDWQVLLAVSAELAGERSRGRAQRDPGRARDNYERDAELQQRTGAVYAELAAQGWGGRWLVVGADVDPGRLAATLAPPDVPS
# Thymidylate kinase [9] = target: T2, Thymidylate kinase (Homo sapiens, UniProt P23919); test: Inhibition of human TMPK assessed as inhibition constant
# T2 sequence (P23919 whole entry): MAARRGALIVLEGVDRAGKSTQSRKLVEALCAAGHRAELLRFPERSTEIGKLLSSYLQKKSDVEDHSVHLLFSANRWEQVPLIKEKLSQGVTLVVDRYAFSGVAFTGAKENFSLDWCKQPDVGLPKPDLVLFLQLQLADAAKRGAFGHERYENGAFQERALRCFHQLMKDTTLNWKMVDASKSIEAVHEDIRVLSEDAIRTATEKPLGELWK
# [10] = system: Mycobacterium tuberculosis; test: Antimycobacterial activity against Mycobacterium tuberculosis H37Rv infected in po dosed C57BL/6 mouse assessed as bacterial growth inhibition measured after 8 days; format: functional; conditions: 192 h, time 8 day
# [11] = system: Mycobacterium tuberculosis; test: Antimycobacterial activity against Mycobacterium tuberculosis infected in Macrophage cell (unknown origin) assessed as bacterial growth inhibition; format: functional
# HepG2 = test: Anticancer activity against human HepG2 cells assessed as cell growth inhibition; format: functional, cell-based
# [12] = Selectivity index, ratio of IC50 for anticancer activity against human HepG2 cells to MIC for antimycobacterial activity against Mycobacterium tuberculosis; format: toxicity, cell-based; conditions: read-out: Selectivity Index
# Chain of Adenosine kinase (Homo sapiens, UniProt P55263) (P55263 whole entry): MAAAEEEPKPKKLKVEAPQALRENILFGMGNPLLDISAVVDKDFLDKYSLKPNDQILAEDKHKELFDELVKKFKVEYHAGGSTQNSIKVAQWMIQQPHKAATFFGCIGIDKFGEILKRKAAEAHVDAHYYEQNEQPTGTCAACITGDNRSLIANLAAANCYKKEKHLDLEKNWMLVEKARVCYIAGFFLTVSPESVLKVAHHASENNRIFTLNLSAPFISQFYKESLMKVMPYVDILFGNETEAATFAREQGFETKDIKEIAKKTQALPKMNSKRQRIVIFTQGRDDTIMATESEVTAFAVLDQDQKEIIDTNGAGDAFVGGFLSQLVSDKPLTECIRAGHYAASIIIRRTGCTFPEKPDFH
# Chain of Adenosine kinase (Mycobacterium tuberculosis (strain CDC 1551 / Oshkosh), UniProt P9WID4) (P9WID4 whole entry): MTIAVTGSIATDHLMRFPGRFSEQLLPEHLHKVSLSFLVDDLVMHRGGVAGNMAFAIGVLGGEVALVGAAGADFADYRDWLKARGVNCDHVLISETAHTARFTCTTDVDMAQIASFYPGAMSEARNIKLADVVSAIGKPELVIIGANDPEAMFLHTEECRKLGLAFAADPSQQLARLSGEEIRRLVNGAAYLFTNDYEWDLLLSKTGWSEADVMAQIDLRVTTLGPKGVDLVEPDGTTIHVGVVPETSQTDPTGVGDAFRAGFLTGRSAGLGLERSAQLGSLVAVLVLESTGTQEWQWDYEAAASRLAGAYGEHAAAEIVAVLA
smiles,measurement,setting,value
O=c1cc(-c2ccc(Cl)cc2)[nH]c2c(-c3ccc(Cl)cc3)cnn12,MIC,[1],12.5 µM
CCCSc1nc(Cl)c(C#N)c(-c2cccc(F)c2)n1,MIC,[2],0.78 µg/mL
COc1ccc(CNc2nc(F)nc(-c3ccco3)c2NC=O)cc1,IC90,[1],< 0.2 µg/mL
CCCSc1nc(Cl)c(C#N)c(-c2cccs2)n1,MIC,[2],0.78 µg/mL
COc1ccc(Cn2cnc3c(-c4ccco4)nc(Cl)nc32)cc1,MIC,[1],0.78 µg/mL
COc1ccc(CNc2nc(C)nc(-c3ccco3)c2NC=O)cc1,IC90,[1],0.33 µg/mL
OC[C@H]1O[C@@H](n2ccc3c(-c4cccc5c4oc4ccccc45)nc(F)nc32)[C@H](O)[C@@H]1O,MIC,[3],32 µM
same,MIC,[4],32 µM
same,pIC50,Adenosine kinase [5],< 4.70
same,pIC50,Adenosine kinase [6],6.74
Cc1cn([C@H]2C[C@H](O)[C@@H](CNC(=S)Nc3ccc(Cl)c(C(F)(F)F)c3)O2)c(=O)[nH]c1=O,Ratio Ki,[7],600
same,pKi,Thymidylate kinase [8],6.22
same,pKi,Thymidylate kinase [9],3.44
Cc1cn([C@H]2C[C@H](NC(=O)N[C@H]3C[C@H](c4[nH]c(=O)[nH]c(=O)c4C)O[C@@H]3O)[C@@H](CO)O2)c(=O)[nH]c1=O,pKi,Thymidylate kinase [8],4.43
O=c1nc(N2CCN(CC3CCCCC3)CC2)sc2c([N+](=O)[O-])cc(C(F)(F)F)cc12 [MACOZINONE],MIC,[1],≤ 0.00019 µg/mL
Cc1nn2c(=O)cc(-c3ccccc3)[nH]c2c1-c1ccccc1,MIC,[1],3.12 µM
O=c1cc(CC2CCCCC2)[nH]c2c(-c3ccc(Cl)cc3)cnn12,MIC,[1],0.78 µM
O=C(C1CCN(c2cc(N3CCOCC3)ncn2)CC1)N1CCC(Oc2ccc(F)cc2)CC1,ED99,[10],30 mg/kg
Cc1nn2c(=O)cc(-c3ccc(F)c(F)c3)[nH]c2c1-c1ccccc1,MIC,[1],1.56 µM
same,MIC,[11],2.73 µM
same,pIC50,HepG2,< 4.00
same,selectivity ratio,[12],> 36
O=C(C1CCN(c2cc(N3CCOCC3)ncn2)CC1)N1CCC(Cc2ccc(F)cc2)CC1,ED99,[10],29 mg/kg
COc1ccc(CNc2nc(Cl)nc(-c3ccco3)c2NC=O)cc1,IC90,[1],0.29 µg/mL
COc1ccc(-c2cc(=O)n3nc(C)c(-c4ccc(Cl)cc4)c3[nH]2)cc1,MIC,[1],3.12 µM
CCCSc1nc(Cl)c(C#N)c(-c2ccco2)n1,MIC,[2],0.78 µg/mL
OC[C@H]1O[C@@H](n2ccc3c(-c4cc5ccccc5o4)nc(F)nc32)[C@H](O)[C@@H]1O,MIC,[4],62.5 µM
same,pIC50,Adenosine kinase [5],< 5.00
same,pIC50,Adenosine kinase [6],5.92
NCC[C@H](O)C(=O)N[C@@H]1C[C@H](N)[C@@H](O[C@H]2O[C@H](CN)[C@@H](O)[C@H](O)[C@H]2O)[C@H](O)[C@H]1O[C@H]1O[C@H](CO)[C@@H](O)[C@H](N)[C@H]1O [AMIKACIN],MIC,[1],2 µg/mL
CC(=O)NC[C@H]1CN(c2ccc(N3CCOCC3)c(F)c2)C(=O)O1 [LINEZOLID],ED99,[10],28 mg/kg
N#Cc1c(Cl)nc(SCc2ccc(Cl)cc2)nc1-c1cccs1,MIC,[2],0.78 µg/mL
COc1c(N2C[C@@H]3CCCN[C@@H]3C2)c(F)cc2c(=O)c(C(=O)O)cn(C3CC3)c12 [MOXIFLOXACIN],ED99,[10],27.7 mg/kg
Cc1cn([C@@H]2O[C@H](CO)[C@H]3CNC(=S)O[C@H]32)c(=O)[nH]c1=O,Ratio Ki,[7],200
